How the values were obtained:
[1] = target: T1, NE reuptake, Rat hypothalamus synaptosome (Rattus norvegicus, UniProt Q9WTR4); test: NE reuptake, optical isomers (Example 37); type: biochemical; settings: 20 min/37° C.
T1 construct: hypothalamus; from tissue; host or cells: rat hypothalamus synaptosomes
From the text: (§1) 3. Experiment Results (IC50 Value was Obtained by Nonlinear Regression Analysis of Inhibition Rate/Concentration Response Curve)

[2] = target: T2, DA reuptake, Rat striatum synaptosome (Rattus norvegicus, UniProt P23977); test: DA reuptake, optical isomers (Example 37); type: biochemical; settings: 15 min/37° C.
T2 construct: Rat striatum; from tissue; host or cells: rat striatum synaptosomes
From the text: as §1

[3] = target: T3, 5-HT reuptake, Rat brain synaptosome (Rattus norvegicus, UniProt P31652); test: 5-HT reuptake, optical isomers (Example 37); type: biochemical; settings: 15 min/37° C.
T3 construct: Rat brain; from tissue; host or cells: rat brain synaptosomes
From the text: as §1

[4] = target: T4, reuptake of [3H]5-HT by prefrontal cortex synaptosomes (Rattus norvegicus, UniProt P31652); test: IC50 for inhibiting reuptake of [3H]5-HT by brain synaptosomes (Example 36); type: biochemical; settings: mean, n = 3~4
T4 construct: from tissue; host or cells: rat prefrontal cortex synaptosomes
Protocol: Male SD rats were sacrificed by cervical dislocation and then the brains thereof were taken out rapidly by decollation and placed on ice. Related rain tissues (for [^3H]5-HT and [^3H]NA reuptake experiment, prefrontal cortex was taken; for [^3H]DA reuptake experiment, striatum was taken) were separated and weighed. 10 times (V/W) of 0.32 mol/L ice-cold sucrose solution was added and was homogenized electrically with glass-teflon. The homogenate was centrifugated at 4° C. at 1000 g×10 min. Then the supernatant was taken and centrifugated at 4° C. at 17000 g×20 min. […] (for NA reuptake experiment, the cortex needed was suspended in 20 volume of KRH Buffer)
(§2) The compounds were used for the studies on inhibition effect (IC50) on reuptake of [^3H]5-HT/NA/DA. At least 5 concentrations each time were settled for each test compound. Each concentration was determined by the average of double twin tubes and the test was repeated for more than 3 times. A series of concentrations of the compounds were prepared by gradient dilution before use. 50 μl thereof was added in total reaction system. Then 50 μl suspended synaptic membrane was added and mixed evenly, incubated in water bath at 37° C. for 30 min. Then 10 nmol/L [^3H] 5-HT (or 50 nmol/L [^3H]DA or 40 nmol/L [^3H]NA) was added and incubated in water bath at 37° C. for 10 min (for [^3H]NA, incubated for 5 min). For the [^3H]5-HT reuptake experiment, 50 μL of fluoxetine (100 μmol/L) was added to the non-specific binding tube; for the [^3H]DA reuptake experiment, 50 μL of cocaine (600 μmol/L) was added to the non-specific binding tube; for the [^3H]NA reuptake experiment, 50 μL of desipramine (100 μmol/L) was added to the non-specific binding tube; for the solvent control, solvent was added to the total binding tube, but no test compound added.
(§3) Sigmoidal curve fitting was performed for the data obtained from all of the test drugs by Origin 6.1, and the IC50 value was calculated.

[5] = Pharmacokinetics and bioavailability, single i.v. and oral administration in SD rat; type: in vivo; settings: for bioavailability: oral 50 mg/kg vs i.v. 10 mg/kg
Protocol: To study the pharmacokinetics parameters and the bioavailability of VIII-9, VIII-10 and SIPI5286 when single i.v. and oral administration in SD rat
Eighteen male rats were randomized into 6 groups and were administrated with the three compounds via i.v. and oral route, respectively. The dosage was 10 mg/kg (IV) and 50 mg/kg (PO). The test substance was dissolved in the solution of 5% DMSO/95% HP-β-CD aqueous solution (30%), and were administrated to the animal via i.v. and oral route. Blood plasma was collected at a serial of time points after i.v. and oral administration, and the blood drug concentrations were determined by LC/MS/MS. Then the pharmacokinetics parameters and the bioavailability were calculated based on the blood drug concentrations.

[6] = target: T5, reuptake of 5-HT by brain synaptosomes (prefrontal cortex) (Rattus norvegicus, UniProt P31652); test: Inhibition of [3H]5-HT reuptake by rat brain synaptosomes, single concentration (Example 35); type: biochemical; settings: test substance 10 μmol/L; inhibitory rate of 0.1 mM venlafaxine taken as 100%
T5 construct: from tissue; host or cells: rat prefrontal cortex synaptosomes
Protocol: (§4) Studies on the reuptake of monoamine neurotransmitters by brain synaptosomes was performed, which is a currently important mean adopted in the worldwide in pharmacological studies of central nervous. This method can not only be used to study the action mechanism of a drug, but also be used for screening new drugs acting by this mechanism.
(§5) Male SD rats were sacrificed by cervical dislocation and then the brains thereof were taken out rapidly by decollation and placed on ice. Related rain tissues (for [^3H]5-HT and [^3H]NA reuptake experiment, prefrontal cortex was taken; for [^3H]DA reuptake experiment, striatum was taken) were separated and weighed. 10 times (V/W) of 0.32 mol/L ice-cold sucrose solution was added and was homogenized electrically with glass-teflon. The homogenate was centrifugated at 4° C. at 1000 g×10 min. Then the supernatant was taken and centrifugated at 4° C. at 17000 g×20 min. The precipitation was suspended in 30 volume of KRH Buffer (125 mM NaCl, 4.8 mM KCl, 1.2 mM CaCl2, 1.2 mM MgSO4, 1.0 mM KH2PO4, 22 mM NaHCO3, 25 mM HEPES, 10 mM Glucose, 10 μM Pargyline, 0.2 mg/ml Ascorbic Acid) and then was preserved in an ice bath for use. (for NA reuptake experiment, the cortex needed was suspended in 20 volume of KRH Buffer)
(§6) Stock solution of the test substance was thawed immediately before use and diluted with KBH Buffer to 100 μmol/L, 50 μl thereof was added in 500 μl of total reaction system, and the final concentration was 10 μmol/L. Then 50 μl suspended synaptic prepared above was added and mixed evenly, incubated in water bath for 30 min at 37° C. Then […] [^3H] 5-HT (50 nmol/L [^3H]DA or […] [^3H]NA) was added. After incubated at 37° C. for 10 min, the reaction system was immediately taken out and the reaction was stopped by adding 2 ml of ice-cold 150 mmol/L Tris-HCl buffer solution. The samples were collected on the circular fiberglass membrane by vacuum filtration, and the membrane was washed 3 times with 3 ml of ice-cold Tris-HCl buffer solution. The filtration membrane was removed, baked for 15 min in a far-infrared oven and placed into an EP tube. 1.5 ml scintillation fluid was added overnight and was tested by liquid scintillation counter. For the solvent control total binding tube and the non-specific binding tube, no test substance was added; for the total binding tube, 50 μl solvent was added.

[7] = target: T6, reuptake of [3H]DA by striatum synaptosomes (Rattus norvegicus, UniProt P23977); test: IC50 for inhibiting reuptake of [3H]DA by brain synaptosomes (Example 36); type: biochemical; settings: mean, n = 3~4
T6 construct: from tissue; host or cells: rat striatum synaptosomes
Protocol: as §5
(§7) 1. Preparation of Rat Brain Synaptosomes (the Same as Example 35)
as §2, §3

[8] = target: T7, reuptake of DA by brain synaptosomes (striatum) (Rattus norvegicus, UniProt P23977); test: Inhibition of [3H]DA reuptake by rat brain synaptosomes, single concentration (Example 35); type: biochemical; settings: test substance 10 μmol/L; inhibitory rate of 0.1 mM 6-hydroxy DA taken as 100%
T7 construct: from tissue; host or cells: rat striatum synaptosomes
Protocol: as §4, §5, §6

ICR mice = test: Mice Forced Swimming Test (in vivo antidepression activity); settings: for swimming test: immobility time: n = 12, mean±SD
[9] = target: T8, reuptake of NA by brain synaptosomes (prefrontal cortex) (Rattus norvegicus, UniProt Q9WTR4); test: Inhibition of [3H]NA reuptake by rat brain synaptosomes, single concentration (Example 35); type: biochemical; settings: test substance 10 μmol/L; inhibitory rate of 0.1 mM venlafaxine taken as 100%
T8 construct: from tissue; host or cells: rat prefrontal cortex synaptosomes
Protocol: as §4, §5, §6

[10] = target: T9, reuptake of [3H]NA by prefrontal cortex synaptosomes (Rattus norvegicus, UniProt Q9WTR4); test: IC50 for inhibiting reuptake of [3H]NA by brain synaptosomes (Example 36); type: biochemical; settings: mean, n = 3~4
T9 construct: from tissue; host or cells: rat prefrontal cortex synaptosomes
Protocol: as §5, §7, §2, §3

mice = test: Oral administration acute toxicity in mice; settings: for mortality (%) / number of died animals: 14 days
[11] = one week oral administration, 10.4 mg/kg
[12] = one week oral administration, 17.3 mg/kg
[13] = one week oral administration, 28.8 mg/kg
[14] = one week oral administration, 48 mg/kg
[15] = single oral administration, 10.4 mg/kg
[16] = single oral administration, 17.3 mg/kg
[17] = single oral administration, 28.8 mg/kg
[18] = single oral administration, 48 mg/kg

T1 sequence (Q9WTR4 1-597): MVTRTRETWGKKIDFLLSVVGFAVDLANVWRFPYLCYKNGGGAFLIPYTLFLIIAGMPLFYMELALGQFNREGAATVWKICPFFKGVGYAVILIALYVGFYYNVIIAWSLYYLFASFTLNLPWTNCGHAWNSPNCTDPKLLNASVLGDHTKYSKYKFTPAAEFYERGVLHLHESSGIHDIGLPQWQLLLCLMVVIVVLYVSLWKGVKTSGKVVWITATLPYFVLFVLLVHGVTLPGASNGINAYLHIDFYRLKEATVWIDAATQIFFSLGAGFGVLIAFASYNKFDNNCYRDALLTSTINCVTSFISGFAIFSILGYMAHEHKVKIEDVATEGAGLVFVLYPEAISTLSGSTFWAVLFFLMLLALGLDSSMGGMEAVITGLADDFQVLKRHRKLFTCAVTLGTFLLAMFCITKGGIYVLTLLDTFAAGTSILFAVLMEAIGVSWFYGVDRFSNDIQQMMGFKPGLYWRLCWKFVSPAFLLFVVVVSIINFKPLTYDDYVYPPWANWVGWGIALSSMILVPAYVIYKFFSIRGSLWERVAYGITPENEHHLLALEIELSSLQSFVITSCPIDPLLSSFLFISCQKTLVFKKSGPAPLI
T3 sequence (P31652 whole entry): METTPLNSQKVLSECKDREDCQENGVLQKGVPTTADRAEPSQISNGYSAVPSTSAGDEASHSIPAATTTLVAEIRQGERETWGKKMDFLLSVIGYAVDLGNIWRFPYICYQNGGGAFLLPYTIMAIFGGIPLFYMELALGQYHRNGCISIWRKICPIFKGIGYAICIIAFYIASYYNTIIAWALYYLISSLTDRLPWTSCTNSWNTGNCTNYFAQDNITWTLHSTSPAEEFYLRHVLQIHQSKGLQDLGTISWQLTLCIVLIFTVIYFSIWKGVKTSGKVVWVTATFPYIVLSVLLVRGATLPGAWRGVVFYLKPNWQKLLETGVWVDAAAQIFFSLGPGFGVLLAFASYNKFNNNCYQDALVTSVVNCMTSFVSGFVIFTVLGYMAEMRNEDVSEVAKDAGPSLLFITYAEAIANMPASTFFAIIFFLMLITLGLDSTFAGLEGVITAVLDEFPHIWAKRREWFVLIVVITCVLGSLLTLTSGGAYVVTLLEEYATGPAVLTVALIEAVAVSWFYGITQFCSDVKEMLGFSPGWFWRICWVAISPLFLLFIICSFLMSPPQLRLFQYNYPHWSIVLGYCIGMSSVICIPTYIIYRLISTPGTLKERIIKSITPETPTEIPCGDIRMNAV
T2 sequence (P23977 whole entry): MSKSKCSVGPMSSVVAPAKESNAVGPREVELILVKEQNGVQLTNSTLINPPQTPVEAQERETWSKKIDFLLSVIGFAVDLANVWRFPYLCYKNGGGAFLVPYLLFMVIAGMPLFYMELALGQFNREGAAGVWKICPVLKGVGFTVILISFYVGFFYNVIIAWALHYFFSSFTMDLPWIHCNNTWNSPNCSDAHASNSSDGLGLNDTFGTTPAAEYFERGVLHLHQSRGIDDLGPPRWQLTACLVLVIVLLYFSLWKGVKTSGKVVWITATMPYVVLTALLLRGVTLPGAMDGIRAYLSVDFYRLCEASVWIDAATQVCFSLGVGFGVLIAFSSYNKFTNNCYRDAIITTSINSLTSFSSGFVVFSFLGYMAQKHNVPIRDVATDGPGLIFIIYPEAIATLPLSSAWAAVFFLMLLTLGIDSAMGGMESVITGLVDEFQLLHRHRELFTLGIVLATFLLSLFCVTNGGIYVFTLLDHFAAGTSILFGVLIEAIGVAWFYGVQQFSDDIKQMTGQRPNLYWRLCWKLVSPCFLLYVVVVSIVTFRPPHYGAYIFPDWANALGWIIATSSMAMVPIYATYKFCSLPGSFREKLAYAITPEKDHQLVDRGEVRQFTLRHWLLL
T8 sequence (Q9WTR4 1-597): as the sequence (Q9WTR4 1-597) above
T9 sequence (Q9WTR4 1-597): as above
T4 sequence (P31652 whole entry): as the sequence (P31652 whole entry) above
T5 sequence (P31652 whole entry): as above
T6 sequence (P23977 whole entry): as the sequence (P23977 whole entry) above
T7 sequence (P23977 whole entry): as above

| SMILES | IC50 [1] [nM] | IC50 [2] [nM] | IC50 [3] [nM] | IC50 [4] [nM] | AUC (0-t) ([5]; i.v. 10 mg/kg) [µg·h/mL] | half life (T½) ([5]; i.v. 10 mg/kg) [h] | Cmax ([5]; i.v. 10 mg/kg, (5 min)) [µg/L] | AUC (0-t) ([5]; oral 50 mg/kg) [µg·h/mL] | Cmax ([5]; oral 50 mg/kg) [µg/L] | Tmax ([5]; oral 50 mg/kg) [h] | half life (T½) ([5]; oral 50 mg/kg) [h] | bioavailability [5] [%] | Inhibition on the reuptake of 5-HT(%) [6] [%] | IC50 [7] [nM] | inhibition on the reuptake of DA(%) [8] [%] | swimming test: immobility time (ICR mice; [11]) [s] | swimming test: immobility time (ICR mice; [12]) [s] | swimming test: immobility time (ICR mice; [13]) [s] | swimming test: immobility time (ICR mice; [14]) [s] | ED50 swimming test (ICR mice; single oral administration) [mg/kg] | other results |
| --- | --- | --- | --- | --- | --- | --- | --- | --- | --- | --- | --- | --- | --- | --- | --- | --- | --- | --- | --- | --- | --- |
| CCCCC(C(O)c1ccc2c(Cl)c(OC)ccc2c1)N1CCN(Cc2ccccc2)CC1 [IX-25, (1R,2S)-N^1-benzyl-N^4-[1-butyl-2-(5′-chloro-6′-methoxyl-2′-naphthyl)hydroxyethyl]piperazine] | 140 | 670 | 830 |  |  |  |  |  |  |  |  |  |  |  |  |  |  |  |  |  |  |
| CCCCC(C(O)c1ccc2c(Cl)c(OC)ccc2c1)N1CCN(Cc2ccccc2)CC1 (single isomer, unassigned) [IX-24] | 1400 | 1100 | 3100 |  |  |  |  |  |  |  |  |  |  |  |  |  |  |  |  |  |  |
| CCCCC(C(O)c1ccc2c(Cl)c(OC)ccc2c1)N1CCN(Cc2ccccc2)CC1 [IX-26, (1R,2R)-N^1-benzyl-N^4-[1-butyl-2-(5′-chloro-6′-methoxyl-2′-naphthyl)hydroxyethyl]piperazine] | 1200 | 1100 | 1200 |  |  |  |  |  |  |  |  |  |  |  |  |  |  |  |  |  |  |
| CCCC[C@H]([C@@H](O)c1ccc2c(Cl)c(OC)ccc2c1)N1CCN(Cc2ccccc2)CC1 (racemic) [VIII-9, (1SR,2RS)-N^1-benzyl-N^4-[1-butyl-2-(5′-chloro-6′-methoxyl-2′-naphthyl)hydroxyethyl]piperazine] |  |  |  | 73.3 | 4.06059 | 7.83 | 2640.94 | 3.34573 | 352.27 | 1.50 | 5.89 | 16.32 | 125 | 2.1 | 117 | 93.4 ± 26.71 | 82.1 ± 44.06 | 87.2 ± 40.07 | 91.5 ± 58.14 | 34.3 | swimming test: immobility time (ICR mice; [15]): 74.3 ± 46.63 s; swimming test: immobility time (ICR mice; [16]): 119.4 ± 28.02 s; swimming test: immobility time (ICR mice; [17]): 77.4 ± 53.81 s; swimming test: immobility time (ICR mice; [18]): 104.3 ± 75.81 s; inhibition on the reuptake of NA(%) [9]: 155.2%; IC50 [10]: 2.8 nM; mortality (%) (mice; oral 507.8 mg/kg): 0%; number of died animals (mice; oral 507.8 mg/kg): 0; mortality (%) (mice; oral 781.2 mg/kg): 0%; number of died animals (mice; oral 781.2 mg/kg): 0; mortality (%) (mice; oral 1201.9 mg/kg): 0%; number of died animals (mice; oral 1201.9 mg/kg): 0; mortality (%) (mice; oral 1849.1 mg/kg): 0%; number of died animals (mice; oral 1849.1 mg/kg): 0; mortality (%) (mice; oral 2844.7 mg/kg): 0%; number of died animals (mice; oral 2844.7 mg/kg): 0 |
| CCCC[C@H]([C@H](O)c1ccc2c(Cl)c(OC)ccc2c1)N1CCN(Cc2ccccc2)CC1 (racemic) [VIII-10, (1SR,2SR)-N^1-benzyl-N^4-[1-butyl-2-(5′-chloro-6′-methoxyl-2′-naphthyl)hydroxyethyl]piperazine] |  |  |  | 272 | 2.93205 | 9.06 | 2998.49 | 5.55224 | 727.20 | 1.67 | 16.41 | 63.78 | 136 | 165 | 133 | 77.6 ± 24.69 | 78.2 ± 25.63 | 51.9 ± 51.23 | 68.3 ± 34.01 | 11.8 | swimming test: immobility time (ICR mice; [15]): 81.8 ± 39.34 s; swimming test: immobility time (ICR mice; [16]): 43.4 ± 35.41 s; swimming test: immobility time (ICR mice; [17]): 40.8 ± 40.24 s; swimming test: immobility time (ICR mice; [18]): 64.4 ± 43.01 s; inhibition on the reuptake of NA(%) [9]: 145%; IC50 [10]: 4730 nM; mortality (%) (mice; oral 507.8 mg/kg): 0.00%; number of died animals (mice; oral 507.8 mg/kg): 0; mortality (%) (mice; oral 781.2 mg/kg): 33.3%; number of died animals (mice; oral 781.2 mg/kg): 2; mortality (%) (mice; oral 1201.9 mg/kg): 66.7%; number of died animals (mice; oral 1201.9 mg/kg): 4; mortality (%) (mice; oral 1849.1 mg/kg): 83.3%; number of died animals (mice; oral 1849.1 mg/kg): 5; mortality (%) (mice; oral 2844.7 mg/kg): 100%; number of died animals (mice; oral 2844.7 mg/kg): 6; LD50 (95% confidential limit) (mice; oral, male & female, Bliss method): 1048.5 (751.33˜1433.7) mg/kg |

— US8252796B2, “1-butyl-2-hydroxyaralkyl piperazine derivatives and the uses as anti-depression medicine thereof” (CSPC Zhonggi Pharmaceutical Technology (Shijiazhuang) Co. …, priority 2008, dated 2012)
